Experimental data as given in patent US20120178915A1, “PYRIMIDINE DERIVATIVES AND ANALOGS, PREPARATION METHOD AND USE THEREOF” (priority 2009, published 2012).
≈ marks a conversion by molar mass, not a printed value. Read-outs that look alike come from different tables or passages of the source.

Legend:
Assay type in all cases: cell-based
[1] = system: Gram-positive Bacteria
[2] = system: Bacillus cereus 2; assay: microbe, parasite or virus in culture; conditions: 37° C., 24 h, read-out: Minimum Inhibitory Concentration, MIC
[3] = system: Bacillus cereus 246; assay: microbe, parasite or virus in culture; conditions: 37° C., 24 h, read-out: Minimum Inhibitory Concentration, MIC
[4] = system: Bacillus subtilis 82; assay: microbe, parasite or virus in culture; conditions: 37° C., 24 h, read-out: Minimum Inhibitory Concentration, MIC
[5] = system: Bacillus subtilis 168; assay: microbe, parasite or virus in culture; conditions: 37° C., 24 h, read-out: Minimum Inhibitory Concentration, MIC
[6] = system: Enterococcus faecalis 29212; assay: microbe, parasite or virus in culture; conditions: 37° C., 24 h, read-out: Minimum Inhibitory Concentration, MIC
[7] = system: Enterococcus faecalis 51299; assay: microbe, parasite or virus in culture; conditions: Enterococcus faecalis, 51299, 24 h, read-out: Minimum Inhibitory Concentration, MIC
[8] = system: Enterococcus faecalis 19433; assay: microbe, parasite or virus in culture; conditions: 37° C., 24 h, read-out: Minimum Inhibitory Concentration, MIC
[9] = system: Enterococcus faecalis F2518 (VRE); assay: microbe, parasite or virus in culture; conditions: 24 h, read-out: Minimum Inhibitory Concentration, MIC
[10] = system: Enterococcus fecal F631 (VRE); assay: organism not typed; conditions: 24 h, read-out: Minimum Inhibitory Concentration, MIC
[11] = system: Enterococcus faecalis 1513 (VRE); assay: microbe, parasite or virus in culture; conditions: 24 h, read-out: Minimum Inhibitory Concentration, MIC
[12] = system: Enterococcus faecalis 583 (VRE); assay: microbe, parasite or virus in culture; conditions: 24 h, read-out: Minimum Inhibitory Concentration, MIC
[13] = system: Staphylococcus aureus 29231; assay: microbe, parasite or virus in culture; conditions: 37° C., 24 h, read-out: Minimum Inhibitory Concentration, MIC
[14] = system: Staphylococcus aureus 43300 (MRSA); assay: microbe, parasite or virus in culture; conditions: 24 h, read-out: Minimum Inhibitory Concentration, MIC
[15] = system: Staphylococcus aureus 703 (MRSA); assay: microbe, parasite or virus in culture; conditions: 24 h, read-out: Minimum Inhibitory Concentration, MIC
[16] = system: Staphylococcus aureus 704 (MRSA); assay: microbe, parasite or virus in culture; conditions: 24 h, read-out: Minimum Inhibitory Concentration, MIC
[17] = system: Staphylococcus aureus 705 (MRSA); assay: microbe, parasite or virus in culture; conditions: 24 h, read-out: Minimum Inhibitory Concentration, MIC
[18] = system: Streptococcus pneumoniae 6303 (PRSP); assay: microbe, parasite or virus in culture; conditions: 24 h, read-out: Minimum Inhibitory Concentration, MIC
[19] = system: Streptococcus pneumoniae 62; assay: microbe, parasite or virus in culture; conditions: 37° C., 24 h, read-out: Minimum Inhibitory Concentration, MIC
[20] = system: Streptococcus pneumoniae 6301; assay: microbe, parasite or virus in culture; conditions: 37° C., 24 h, read-out: Minimum Inhibitory Concentration, MIC
[21] = system: Streptococcus pneumoniae M2; assay: microbe, parasite or virus in culture; conditions: 37° C., 24 h, read-out: Minimum Inhibitory Concentration, MIC
[22] = system: Pyogenic Streptococcus; assay: microbe, parasite or virus in culture; conditions: 37° C., 24 h, read-out: Minimum Inhibitory Concentration, MIC
[23] = system: Streptococcus agalactiae B; assay: microbe, parasite or virus in culture; conditions: 37° C., 24 h, read-out: Minimum Inhibitory Concentration, MIC
[24] = system: green Streptococcus 1009; assay: microbe, parasite or virus in culture; conditions: 37° C., 24 h, read-out: Minimum Inhibitory Concentration, MIC
[25] = system: Streptococcus bovis 10035; assay: microbe, parasite or virus in culture; conditions: Streptococcus equinus, 37° C., 24 h, read-out: Minimum Inhibitory Concentration, MIC
[26] = system: Streptococcus 10342; assay: MIC broth microdilution; conditions: 37° C., 24 h, read-out: Minimum Inhibitory Concentration, MIC
[27] = system: Streptococcus pneumoniae 10351; assay: microbe, parasite or virus in culture; conditions: 37° C., 24 h, read-out: Minimum Inhibitory Concentration, MIC
[28] = system: Bacillus anthracis 1; assay: microbe, parasite or virus in culture; conditions: Bacillus anthracis, 1, 24 h, read-out: Minimum Inhibitory Concentration, MIC
[29] = system: Corynebacterium diphtheriae; assay: microbe, parasite or virus in culture; conditions: 37° C., 24 h, read-out: Minimum Inhibitory Concentration, MIC
[30] = system: Clostridium tetani; assay: microbe, parasite or virus in culture; conditions: 24 h
[31] = system: Clostridium perfringens; assay: microbe, parasite or virus in culture; conditions: 24 h, read-out: Minimum Inhibitory Concentration, MIC
[32] = system: Oral candidiasis; assay: MIC broth microdilution; conditions: Microorganism 32, Oral candidiasis; 37° C., 24 h; read-out: Minimum Inhibitory Concentration, MIC
[33] = MIC broth microdilution; conditions: Microorganism 33, Dermatophytosis; 37° C., 24 h; read-out: Minimum Inhibitory Concentration, MIC
[34] = read-out: Minimum Inhibitory Concentration, MIC, Microorganism 29, Clostridium tetani, 37° C.
[35] = read-out: Minimum Inhibitory Concentration, MIC, Microorganism 30, Clostridium tetani (second line of that name), 37° C.

SMILES	MIC [2]	MIC [3]	MIC [4]	MIC [5]	MIC [6]	MIC [7]	MIC [8]	MIC [9]	MIC [10]	MIC [11]	MIC [12]	MIC [13]	MIC [14]	MIC [15]	MIC [16]	MIC [17]	MIC [18]	MIC [19]	MIC [20]	MIC [21]	also measured
O=c1[nH]c(-c2ccc(C(F)(F)F)cc2)nc2cc(Cl)ccc12 [Compound 14]	20.2 µM (≈ 6.57 µg/mL)	30.2 µM (≈ 9.79 µg/mL)	10.3 µM (≈ 3.35 µg/mL)	12.5 µM (≈ 4.06 µg/mL)	15 µM (≈ 4.87 µg/mL)	21.5 µM (≈ 6.98 µg/mL)	13.5 µM (≈ 4.38 µg/mL)	122 µM (≈ 39.7 µg/mL)	221 µM (≈ 71.8 µg/mL)	130 µM (≈ 42.3 µg/mL)	120 µM (≈ 39.1 µg/mL)	6.31 µM (≈ 2.05 µg/mL)	120 µM (≈ 39.1 µg/mL)	125 µM (≈ 40.6 µg/mL)	160 µM (≈ 52 µg/mL)	210 µM (≈ 68.3 µg/mL)	250 µM (≈ 81.2 µg/mL)	100 µM (≈ 32.5 µg/mL)	141 µM (≈ 45.7 µg/mL)	120 µM (≈ 39 µg/mL)	inhibition of growth (conclusion from MICs) ([1]; the majority of Bacillus cereus, Bacillus subtilis and Enterococcus faecalis): significantly inhibited the growth; MIC [22]: 132 µM (≈ 43 µg/mL); MIC [23]: 225 µM (≈ 73.1 µg/mL); MIC [24]: 126 µM (≈ 40.7 µg/mL); MIC [25]: 100 µM (≈ 32.6 µg/mL); MIC [26]: 170 µM (≈ 55.4 µg/mL); MIC [27]: 104 µM (≈ 33.6 µg/mL); MIC [28]: 122 µM (≈ 39.8 µg/mL); MIC [29]: 135 µM (≈ 43.9 µg/mL); MIC [30, 34]: 160 µM (≈ 52 µg/mL); MIC [30, 35]: 120 µM (≈ 39.1 µg/mL); MIC [31]: 125 µM (≈ 40.6 µg/mL); MIC [32]: 133 µM (≈ 43.2 µg/mL); MIC [33]: 121 µM (≈ 39.4 µg/mL)
Cc1nn2c(=O)cc(-c3ccc(C(F)(F)F)nc3)[nH]c2c1-c1ccc(Cl)cc1Cl [Compound 8]	0.65 µM (≈ 0.285 µg/mL)	2.6 µM (≈ 1.14 µg/mL)	1.35 µM (≈ 0.593 µg/mL)	0.66 µM (≈ 0.29 µg/mL)	0.66 µM (≈ 0.29 µg/mL)	0.36 µM (≈ 0.158 µg/mL)	11.5 µM (≈ 5.05 µg/mL)	0.32 µM (≈ 0.141 µg/mL)	0.04 µM (≈ 0.0176 µg/mL)	0.16 µM (≈ 0.0703 µg/mL)	0.31 µM (≈ 0.136 µg/mL)	10.3 µM (≈ 4.52 µg/mL)	0.6 µM (≈ 0.264 µg/mL)	1.23 µM (≈ 0.54 µg/mL)	10.3 µM (≈ 4.52 µg/mL)	50.6 µM (≈ 22.2 µg/mL)	1.23 µM (≈ 0.54 µg/mL)	0.63 µM (≈ 0.277 µg/mL)	2.5 µM (≈ 1.1 µg/mL)	1.25 µM (≈ 0.549 µg/mL)	inhibition of growth (conclusion from MICs) ([1]; Enterococcus faecalis (VRE), Staphylococcus aureus (MRSA), Streptococcus pneumoniae 6303 (PRSP), Bacillus cereus, Bacillus subtilis, Enterococcus faecalis, Staphylococcus aureus, Streptococcus pneumoniae, Streptococcus agalactiae B and streptococci 4): significantly inhibited the growth; MIC [22]: 0.63 µM (≈ 0.277 µg/mL); MIC [23]: 0.56 µM (≈ 0.246 µg/mL); MIC [24]: 0.3 µM (≈ 0.132 µg/mL); MIC [25]: 10.5 µM (≈ 4.61 µg/mL); MIC [26]: 0.3 µM (≈ 0.132 µg/mL); MIC [27]: 0.04 µM (≈ 0.0176 µg/mL); MIC [28]: 56.8 µM (≈ 24.9 µg/mL); MIC [29]: 30.3 µM (≈ 13.3 µg/mL); MIC [30, 34]: 70.3 µM (≈ 30.9 µg/mL); MIC [30, 35]: 50.6 µM (≈ 22.2 µg/mL); MIC [31]: 61.3 µM (≈ 26.9 µg/mL); MIC [32]: 20.3 µM (≈ 8.92 µg/mL); MIC [33]: 31.8 µM (≈ 14 µg/mL)
